According to BindingDB's records for doi:10.1016/s0960-894x(99)00595-8 (Banyu Tsukuba Research Institute In Collaboration With …, 2000):
pEC50: −log10 of the molar value.

What follows are molecules tested against DNA topoisomerase 2-alpha (Homo sapiens) (UniProt P11388) (assay: In vitro inhibition of Topoisomerase II-mediated DNA cleavage using supercoiled pBR322 plasmid DNA.).
DNA topoisomerase 2-alpha (Homo sapiens), sequence (P11388 whole entry, looked up): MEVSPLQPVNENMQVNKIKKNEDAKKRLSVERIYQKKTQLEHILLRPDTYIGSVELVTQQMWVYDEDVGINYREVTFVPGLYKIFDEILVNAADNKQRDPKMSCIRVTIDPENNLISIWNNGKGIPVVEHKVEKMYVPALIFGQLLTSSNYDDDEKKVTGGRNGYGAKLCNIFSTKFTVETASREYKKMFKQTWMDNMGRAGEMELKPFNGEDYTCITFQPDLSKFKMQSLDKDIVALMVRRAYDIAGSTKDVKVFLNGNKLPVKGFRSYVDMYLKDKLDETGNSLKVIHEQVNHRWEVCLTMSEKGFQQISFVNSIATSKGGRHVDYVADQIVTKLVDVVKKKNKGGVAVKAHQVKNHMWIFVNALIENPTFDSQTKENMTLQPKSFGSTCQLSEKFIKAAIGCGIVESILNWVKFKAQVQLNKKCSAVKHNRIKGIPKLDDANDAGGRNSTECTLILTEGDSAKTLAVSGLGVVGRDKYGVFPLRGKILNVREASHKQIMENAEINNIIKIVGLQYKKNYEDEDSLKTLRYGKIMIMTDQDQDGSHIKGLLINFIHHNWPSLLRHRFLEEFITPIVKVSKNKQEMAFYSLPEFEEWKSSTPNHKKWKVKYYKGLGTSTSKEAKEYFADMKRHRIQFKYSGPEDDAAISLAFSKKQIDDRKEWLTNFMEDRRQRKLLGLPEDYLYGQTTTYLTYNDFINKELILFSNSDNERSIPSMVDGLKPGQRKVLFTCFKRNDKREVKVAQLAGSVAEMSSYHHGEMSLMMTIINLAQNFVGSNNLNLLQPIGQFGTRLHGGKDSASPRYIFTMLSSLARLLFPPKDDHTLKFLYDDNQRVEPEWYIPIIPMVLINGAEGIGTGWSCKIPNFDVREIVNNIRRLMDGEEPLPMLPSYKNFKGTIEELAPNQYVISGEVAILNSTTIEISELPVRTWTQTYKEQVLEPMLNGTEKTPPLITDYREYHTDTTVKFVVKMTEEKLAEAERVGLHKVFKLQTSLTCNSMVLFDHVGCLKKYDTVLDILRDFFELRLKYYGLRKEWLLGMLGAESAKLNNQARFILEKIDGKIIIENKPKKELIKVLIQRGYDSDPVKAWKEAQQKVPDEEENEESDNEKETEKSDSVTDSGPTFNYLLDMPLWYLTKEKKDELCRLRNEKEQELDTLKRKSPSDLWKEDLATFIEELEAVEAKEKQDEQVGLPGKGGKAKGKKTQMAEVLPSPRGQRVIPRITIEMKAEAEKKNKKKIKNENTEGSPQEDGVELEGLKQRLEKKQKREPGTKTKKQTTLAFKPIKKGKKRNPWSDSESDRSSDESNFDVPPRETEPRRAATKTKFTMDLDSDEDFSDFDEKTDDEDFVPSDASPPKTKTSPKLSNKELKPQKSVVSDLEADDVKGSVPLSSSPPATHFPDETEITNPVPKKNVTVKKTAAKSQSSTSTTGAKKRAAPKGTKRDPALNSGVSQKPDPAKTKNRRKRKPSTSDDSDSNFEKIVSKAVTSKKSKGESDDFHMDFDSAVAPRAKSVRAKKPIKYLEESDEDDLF

Structure (SMILES) | pEC50
O=C1c2c(c3c4cc(O)cc(O)c4n(C4OC(CO)C(O)C(O)C4O)c3c3[nH]c4c(O)cc(O)cc4c23)C(=O)N1NC(CO)CO (stereo not drawn) [1,3,9,11-tetrahydroxy-6-(2-hydroxy-1-hydroxymethylethylamino)-12-(3,4,5-trihydroxy-6-hydroxymethyltetrahydro-2H-2-pyranyl)-6,7,12,13-tetrahydro-5H-indolo[2,3-a]pyrrolo[3,4-c]carbazole-5,7-dione] | < 4.30
O=C1c2c(c3c4ccc(O)cc4n(C4OC(CO)C(O)C(O)C4O)c3c3[nH]c4c(O)cc(O)cc4c23)C(=O)N1NC(CO)CO (stereo not drawn) [1,3,10-trihydroxy-6-(2-hydroxy-1-hydroxymethylethylamino)-12-(3,4,5-trihydroxy-6-hydroxymethyltetrahydro-2H-2-pyranyl)-6,7,12,13-tetrahydro-5H-indolo[2,3-a]pyrrolo[3,4-c]carbazole-5,7-dione] | < 4.30
O=C1c2c(c3c4cc(O)ccc4n(C4OC(CO)C(O)C(O)C4O)c3c3[nH]c4c(O)cccc4c23)C(=O)N1NC(CO)CO (stereo not drawn) [1,9-dihydroxy-6-(2-hydroxy-1-hydroxymethylethylamino)-12-(3,4,5-trihydroxy-6-hydroxymethyltetrahydro-2H-2-pyranyl)-6,7,12,13-tetrahydro-5H-indolo[2,3-a]pyrrolo[3,4-c]carbazole-5,7-dione] | < 4.30
O=C1c2c(c3c4cccc(O)c4n(C4OC(CO)C(O)C(O)C4O)c3c3[nH]c4ccc(O)cc4c23)C(=O)N1NC(CO)CO (stereo not drawn) [1,9-dihydroxy-6-(2-hydroxy-1-hydroxymethylethylamino)-13-(3,4,5-trihydroxy-6-hydroxymethyltetrahydro-2H-2-pyranyl)-6,7,12,13-tetrahydro-5H-indolo[2,3-a]pyrrolo[3,4-c]carbazole-5,7-dione] | < 4.30
O=C1c2c(c3c4ccc(O)cc4n(C4OC(CO)C(O)C(O)C4O)c3c3[nH]c4c(O)cccc4c23)C(=O)N1NC(CO)CO (stereo not drawn) [1,10-dihydroxy-6-(2-hydroxy-1-hydroxymethylethylamino)-12-(3,4,5-trihydroxy-6-hydroxymethyltetrahydro-2H-2-pyranyl)-6,7,12,13-tetrahydro-5H-indolo[2,3-a]pyrrolo[3,4-c]carbazole-5,7-dione] | < 4.30
O=C1c2c(c3c4cccc(O)c4n(C4OC(CO)C(O)C(O)C4O)c3c3[nH]c4cc(O)ccc4c23)C(=O)N1NC(CO)CO (stereo not drawn) [1,10-dihydroxy-6-(2-hydroxy-1-hydroxymethylethylamino)-13-(3,4,5-trihydroxy-6-hydroxymethyltetrahydro-2H-2-pyranyl)-6,7,12,13-tetrahydro-5H-indolo[2,3-a]pyrrolo[3,4-c]carbazole-5,7-dione] | < 4.30
O=C1c2c(c3c4ccc(O)cc4n(C4OC(CO)C(O)C(O)C4O)c3c3[nH]c4cc(O)ccc4c23)C(=O)N1NC(CO)CO (stereo not drawn) [2,10-dihydroxy-6-(2-hydroxy-1-hydroxymethylethylamino)-12-(3,4,5-trihydroxy-6-hydroxymethyltetrahydro-2H-2-pyranyl)-6,7,12,13-tetrahydro-5H-indolo[2,3-a]pyrrolo[3,4-c]carbazole-5,7-dione] | < 4.30

Next, values leading:

pEC50 | Structure (SMILES)
< 4.30 | O=C1c2c(c3c4cccc(O)c4n(C4OC(CO)C(O)C(O)C4O)c3c3[nH]c4c(O)cccc4c23)C(=O)N1NC(CO)CO (stereo not drawn) [1,11-dihydroxy-6-(2-hydroxy-1-hydroxymethylethylamino)-12-(3,4,5-trihydroxy-6-hydroxymethyltetrahydro-2H-2-pyranyl)-6,7,12,13-tetrahydro-5H-indolo[2,3-a]pyrrolo[3,4-c]carbazole-5,7-dione]
< 4.30 | O=C1c2c(c3c4ccccc4n(C4OC(CO)C(O)C(O)C4O)c3c3[nH]c4c(O)cccc4c23)C(=O)N1NC(CO)CO (stereo not drawn) [1-hydroxy-6-(2-hydroxy-1-hydroxymethylethylamino)-12-(3,4,5-trihydroxy-6-hydroxymethyltetrahydro-2H-2-pyranyl)-6,7,12,13-tetrahydro-5H-indolo[2,3-a]pyrrolo[3,4-c]carbazole-5,7-dione]
< 4.30 | O=C1c2c(c3c4cccc(O)c4n(C4OC(CO)C(O)C(O)C4O)c3c3[nH]c4ccccc4c23)C(=O)N1NC(CO)CO (stereo not drawn) [1-hydroxy-6-(2-hydroxy-1-hydroxymethylethylamino)-13-(3,4,5-trihydroxy-6-hydroxymethyltetrahydro-2H-2-pyranyl)-6,7,12,13-tetrahydro-5H-indolo[2,3-a]pyrrolo[3,4-c]carbazole-5,7-dione]
< 4.30 | O=C1c2c(c3c4cc(O)ccc4n(C4OC(CO)C(O)C(O)C4O)c3c3[nH]c4cc(O)ccc4c23)C(=O)N1NC(CO)CO (stereo not drawn) [2,9-dihydroxy-6-(2-hydroxy-1-hydroxymethylethylamino)-12-(3,4,5-trihydroxy-6-hydroxymethyltetrahydro-2H-2-pyranyl)-6,7,12,13-tetrahydro-5H-indolo[2,3-a]pyrrolo[3,4-c]carbazole-5,7-dione]
< 4.30 | O=C1c2c(c3c4ccc(O)cc4n(C4OC(CO)C(O)C(O)C4O)c3c3[nH]c4ccc(O)cc4c23)C(=O)N1NC(CO)CO (stereo not drawn) [2,9-dihydroxy-6-(2-hydroxy-1-hydroxymethylethylamino)-13-(3,4,5-trihydroxy-6-hydroxymethyltetrahydro-2H-2-pyranyl)-6,7,12,13-tetrahydro-5H-indolo[2,3-a]pyrrolo[3,4-c]carbazole-5,7-dione]
< 4.30 | O=C1c2c(c3c4ccccc4n(C4OC(CO)C(O)C(O)C4O)c3c3[nH]c4cc(O)ccc4c23)C(=O)N1NC(CO)CO (stereo not drawn) [2-hydroxy-6-(2-hydroxy-1-hydroxymethylethylamino)-12-(3,4,5-trihydroxy-6-hydroxymethyltetrahydro-2H-2-pyranyl)-6,7,12,13-tetrahydro-5H-indolo[2,3-a]pyrrolo[3,4-c]carbazole-5,7-dione]
< 4.30 | O=C1c2c(c3c4ccc(O)cc4n(C4OC(CO)C(O)C(O)C4O)c3c3[nH]c4ccccc4c23)C(=O)N1NC(CO)CO (stereo not drawn) [2-hydroxy-6-(2-hydroxy-1-hydroxymethylethylamino)-13-(3,4,5-trihydroxy-6-hydroxymethyltetrahydro-2H-2-pyranyl)-6,7,12,13-tetrahydro-5H-indolo[2,3-a]pyrrolo[3,4-c]carbazole-5,7-dione]
< 4.30 | O=C1c2c(c3c4cc(O)ccc4n(C4OC(CO)C(O)C(O)C4O)c3c3[nH]c4ccc(O)cc4c23)C(=O)N1NC(CO)CO (stereo not drawn) [3,9-dihydroxy-6-(2-hydroxy-1-hydroxymethylethylamino)-12-(3,4,5-trihydroxy-6-hydroxymethyltetrahydro-2H-2-pyranyl)-6,7,12,13-tetrahydro-5H-indolo[2,3-a]pyrrolo[3,4-c]carbazole-5,7-dione]
< 4.30 | O=C1c2c(c3c4ccccc4n(C4OC(CO)C(O)C(O)C4O)c3c3[nH]c4ccc(O)cc4c23)C(=O)N1NC(CO)CO (stereo not drawn) [3-hydroxy-6-(2-hydroxy-1-hydroxymethylethylamino)-12-(3,4,5-trihydroxy-6-hydroxymethyltetrahydro-2H-2-pyranyl)-6,7,12,13-tetrahydro-5H-indolo[2,3-a]pyrrolo[3,4-c]carbazole-5,7-dione]
< 4.30 | O=C1c2c(c3c4cc(O)ccc4n(C4OC(CO)C(O)C(O)C4O)c3c3[nH]c4ccccc4c23)C(=O)N1NC(CO)CO (stereo not drawn) [3-hydroxy-6-(2-hydroxy-1-hydroxymethylethylamino)-13-(3,4,5-trihydroxy-6-hydroxymethyltetrahydro-2H-2-pyranyl)-6,7,12,13-tetrahydro-5H-indolo[2,3-a]pyrrolo[3,4-c]carbazole-5,7-dione]
< 4.30 | O=C1c2c(c3c4ccccc4n(C4OC(CO)C(O)C(O)C4O)c3c3[nH]c4cccc(O)c4c23)C(=O)N1NC(CO)CO (stereo not drawn) [4-hydroxy-6-(2-hydroxy-1-hydroxymethylethylamino)-12-(3,4,5-trihydroxy-6-hydroxymethyltetrahydro-2H-2-pyranyl)-6,7,12,13-tetrahydro-5H-indolo[2,3-a]pyrrolo[3,4-c]carbazole-5,7-dione]
